Reference: patent publication US9914730B2, “Azaquinazoline inhibitors of Atypical protein Kinase C” (Ignyta, Inc., priority 2012, dated 2018)
pIC50: −log10 of the molar value.

What follows are compounds tested against T1, full-length human PKCι (Homo sapiens, UniProt P41743) (assay: PKCι IC50 IMAP assay, full-length PKCι at 150 μM ATP). Settings: read-out: IC50 in IMAP assay against full length PKCi at 150 μM ATP.
T1 construct: Recombinant, full-length human PKCι expressed in Sf21 insect cells is also commercially available; purchased; host or cells: Sf21 insect cells
T1 sequence (P41743 1-596): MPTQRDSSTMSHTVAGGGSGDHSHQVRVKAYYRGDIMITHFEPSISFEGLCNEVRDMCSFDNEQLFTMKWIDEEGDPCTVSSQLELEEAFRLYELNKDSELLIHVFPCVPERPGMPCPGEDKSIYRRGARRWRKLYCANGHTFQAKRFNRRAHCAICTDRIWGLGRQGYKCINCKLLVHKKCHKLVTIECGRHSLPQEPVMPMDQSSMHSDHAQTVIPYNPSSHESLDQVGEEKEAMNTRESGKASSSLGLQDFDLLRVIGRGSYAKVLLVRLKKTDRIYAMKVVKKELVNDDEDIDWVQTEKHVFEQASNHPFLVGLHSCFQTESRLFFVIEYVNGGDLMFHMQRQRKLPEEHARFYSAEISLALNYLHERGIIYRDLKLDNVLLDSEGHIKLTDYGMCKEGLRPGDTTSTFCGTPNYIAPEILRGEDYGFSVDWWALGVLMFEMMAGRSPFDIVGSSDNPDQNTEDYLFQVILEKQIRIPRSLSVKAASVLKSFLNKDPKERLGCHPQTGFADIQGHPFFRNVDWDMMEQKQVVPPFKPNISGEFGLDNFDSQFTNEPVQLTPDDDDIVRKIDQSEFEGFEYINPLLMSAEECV
Format: biochemical
From the text: Assays are based on the ability of PKCι to phosphorylate a commercially available peptide substrate in vitro. The peptide substrate is FAM-PKCε pseudopeptide derived peptide, and comprises the amino acid sequence 5FAM-[…]-NH2. Recombinant, full-length human PKCι expressed in Sf21 insect cells is also commercially available. Recombinant, kinase-domain human PKCι is expressed and purified in-house.
The procedure below explains how dose response curves for inhibitors of PKCι are obtained. The screen described is for a 384 well format but the assay can be adapted to 1536 or other formats as required.
Compounds to be tested are dissolved in 100% DMSO. Compounds are diluted as required to give a final concentration of 4% DMSO (v/v) in the assay. 1 μl is plated into 384 well black low-binding flat bottomed assay plates which are used immediately. Dilutions and additions of compound to assay plates are carried out using Matrix WellMate® and Matrix PlateMate® Plus liquid handling systems.
On the day of the screen PKCι/substrate working solution, and ATP working solution, are prepared in buffer containing 20 mM tris-HCl pH7.5, 10 mM MgCl2, 0.01% Triton X100, 250 μM EGTA and 1 mM DTT. The final concentration of PKCι used varies depending on the batch of protein but is typically 15 pM. The final concentration of peptide substrate in the assay is 100 nM. ATP is used at a final concentration of 150 μM or 25 μM in the assays containing full-length or kinase-domain PKCι respectively, which corresponds to five times or equal to the KM^APP for ATP for each enzyme, respectively. The final buffer concentration in the assay is 18 mM tris-HCl pH7.5, 9 mM MgCl2, 0.009% Triton X100, 225 μM EGTA and 0.9 mM DTT. Relevant controls are included, namely no compound and no enzyme. 5 μl PKCι/substrate working solution at 30 pM and 200 nM, respectively, is added to the wells, followed by 4 μl ATP working solution at 375 μM or 62.5 μM for full-length or kinase-domain PKCι respectively, using a 16 channel Matrix pipette. The reaction is allowed to incubate for 60 minutes at room temperature, before the reaction is stopped and developed by the addition of 20 μl IMAP™ development reagent (Molecular Devices). IMAP development reagent consists of 0.25% (v/v) IMAP progressive binding reagent, 17% (v/v) IMAP progressive binding buffer A and 3% (v/v) IMAP progressive binding buffer B. The plates are then incubated for 2 hours at room temperature before being read using an appropriate plate reader, for example a Molecular Devices HT Analyst or a BMG Pherastar. Plates are read using a fluorescence polarisation protocol with excitation at 485 nm and emission at 530 nm, and dichroic mirror at 505 nm.
Percentage inhibition values are calculated from fluorescence polarisation values, using the no compound and no enzyme control values as 0% and 100% inhibition, respectively. IC50 determination is performed with ExcelFit software (IDBS) using curve fit 205. Z′ factors are determined for each plate tested and are all above 0.5.

pIC50, > 7.00:
N[C@H](CNc1nc(-c2ccncc2)nc2c(Cl)nccc12)Cc1ccccc1 [Example 11, N-[(2S)-2-amino-3-phenylpropyl]-8-chloro-2-(pyridin-4-yl)pyrido[3,4-d]-pyrimidin-4-amine]
N[C@H](CNc1nc(-c2ccncc2)nc2cnc(Cl)cc12)Cc1ccccc1 [Example 12, N-[(2S)-2-amino-3-phenylpropyl]-6-chloro-2-(pyridin-4-yl)pyrido[3,4-d]-pyrimidin-4-amine]
COc1cncc2nc(-c3ccncc3)nc(N3CCN[C@H](Cc4ccccc4)C3)c12 [Example 37, (3R)-3-benzyl-1-[5-methoxy-2-(pyridin-4-yl)pyrido[3,4-d]pyrimidin-4-yl]piperazine]
CN[C@H](CNc1nc(-c2ccncc2)nc2cncc(OC)c12)Cc1ccccc1 [Example 41, [(2S)-1-{[5-methoxy-2-(pyridin-4-yl)-pyrido[3,4-d]-pyrimidin-4-yl]-amino}-3-phenylpropan-2-yl](methyl)amine]

pIC50, 4.40 to 5.00:
CN1CCN(c2nc(-c3ccncc3)nc3cnccc23)CC1 [Example 18, 1-methyl-4-[2-(pyridin-4-yl)-pyrido[3,4-d]-pyrimidin-4-yl]-piperazine]
CN1CCCN(c2nc(-c3ccncc3)nc3cnccc23)CC1 [Example 19, 1-methyl-4-[2-(pyridin-4-yl)-pyrido[3,4-d]-pyrimidin-4-yl]-1,4-diazepane]
c1ccc(C[C@H]2CN(Cc3ccccc3)CCN2c2nc(-c3ccncc3)nc3cnccc23)cc1 [Example 20, (2S)-2,4-dibenzyl-1-[2-(pyridin-4-yl)-pyrido[3,4-d]-pyrimidin-4-yl]-piperazine]
c1cc(-c2nc(N3CCOCC3)c3ccncc3n2)ccn1 [Example 21, 4-[2-(pyridin-4-yl)pyrido[3,4-d]-pyrimidin-4-yl]morpholine]
CC(C)(C)OC(=O)N1CCN(c2nc(-c3ccncc3)nc3cnccc23)CC1 [Example 22, tert-butyl 4-[2-(pyridin-4-yl)-pyrido[3,4-d]-pyrimidin-4-yl]-piperazine-1-carboxylate]
CC(C)(C)OC(=O)N1CCCN(c2nc(-c3ccncc3)nc3cnccc23)CC1 [Example 23, tert-butyl 4-[2-(pyridin-4-yl)-pyrido[3,4-d]pyrimidin-4-yl]-1,4-diazepane-1-carboxylate]
c1cc(-c2nc(N3CCSCC3)c3ccncc3n2)ccn1 [Example 24, 4-[2-(pyridin-4-yl)pyrido[3,4-d]-pyrimidin-4-yl]-thiomorpholine]
CN(C[C@@H](N)Cc1ccccc1)c1nc(-c2ccncc2)nc2cnccc12 [Example 26, N-[(2S)-2-amino-3-phenylpropyl]-N-methyl-2-(pyridin-4-yl)pyrido[3,4-d]-pyrimidin-4-amine]
O=C1CN(c2nc(-c3ccncc3)nc3cnccc23)CCN1 [Example 27, 4-[2-(pyridin-4-yl)pyrido[3,4-d]-pyrimidin-4-yl]-piperazin-2-one]
OCCN1CCN(c2nc(-c3ccncc3)nc3cnccc23)CC1 [Example 34, 2-{4-[2-(pyridin-4-yl)pyrido[3,4-d]-pyrimidin-4-yl]-piperazin-1-yl}-ethan-1-ol]
O[C@H]1CCN(c2nc(-c3ccncc3)nc3cnccc23)C1 [Example 35, (3S)-1-[2-(pyridin-4-yl)pyrido[3,4-d]-pyrimidin-4-yl]-pyrrolidin-3-ol]
O[C@@H]1CCN(c2nc(-c3ccncc3)nc3cnccc23)C1 [Example 36, (3R)-1-[2-(pyridin-4-yl)pyrido[3,4-d]-pyrimidin-4-yl]-pyrrolidin-3-ol]
COC(=O)[C@@H]1C[C@H](Nc2nc(-c3ccncc3)nc3cnccc23)CN1 [Example 39, methyl (2S,4S)-4-{[2-(pyridin-4-yl)pyrido[3,4-d]-pyrimidin-4-yl]-amino}pyrrolidine-2-carboxylate]

pIC50, 6.00 to 7.00:
c1ccc(C[C@H]2CN(c3nc(-c4ccncc4)nc4cnccc34)CCN2)cc1 [Example 16, (3S)-3-benzyl-1-[2-(pyridin-4-yl)pyrido[3,4-d]-pyrimidin-4-yl]-piperazine]
CN(C)[C@H](CNc1nc(-c2ccncc2)nc2cnccc12)Cc1ccccc1 [Example 25, N,N-Dimethyl[(2S)-1-phenyl-3-{[2-(pyridin-4-yl)-pyrido[3,4-d]-pyrimidin-4-yl]-amino}propan-2-yl]amine]
NC[C@H](Cc1ccccc1)Nc1nc(-c2ccncc2)nc2cnccc12 [Example 28, N-[(2S)-1-amino-3-phenylpropan-2-yl]-2-(pyridin-4-yl)-pyrido[3,4-d]-pyrimidin-4-amine]
COc1cncc2nc(-c3ccncc3)nc(N3CCNCC3)c12 [Example 31, 1-[5-methoxy-2-(pyridin-4-yl)-pyrido[3,4-d]-pyrimidin-4-yl]-piperazine]
Clc1nccc2c(N3CCNCC3)nc(-c3ccncc3)nc12 [Example 32, 1-[8-chloro-2-(pyridin-4-yl)-pyrido[3,4-d]-pyrimidin-4-yl]-piperazine]
c1ccc(C[C@H]2CNCCN2c2nc(-c3ccncc3)nc3cnccc23)cc1 [Example 38, (2S)-2-benzyl-1-[2-(pyridin-4-yl)-pyrido[3,4-d]-pyrimidin-4-yl]-piperazine]

pIC50, 5.00 to 6.00:
Clc1cc2c(N3CCNCC3)nc(-c3ccncc3)nc2cn1 [Example 13, 1-[6-chloro-2-(pyridin-4-yl)-pyrido[3,4-d]-pyrimidin-4-yl]piperazine]
O[C@H](CNc1nc(-c2ccncc2)nc2cnccc12)Cc1ccccc1 [Example 15, (2S)-1-phenyl-3-{[2-(pyridin-4-yl)pyrido[3,4-d]-pyrimidin-4-yl]-amino}propan-2-ol]
c1ccc(C[C@@H]2CN(c3nc(-c4ccncc4)nc4cnccc34)CCN2)cc1 [Example 17, (3R)-3-benzyl-1-[2-(pyridin-4-yl)-pyrido[3,4-d]-pyrimidin-4-yl]-piperazine]
c1ccc(C[C@@H]2CNCCN2c2nc(-c3ccncc3)nc3cnccc23)cc1 [Example 29, (2R)-2-benzyl-1-[2-(pyridin-4-yl)-pyrido[3,4-d]-pyrimidin-4-yl]-piperazine]
COc1cncc2nc(-c3ccncc3)nc(N3CCN[C@@H](Cc4ccccc4)C3)c12 [Example 30, (3S)-3-benzyl-1-[5-methoxy-2-(pyridin-4-yl)-pyrido[3,4-d]-pyrimidin-4-yl]-piperazine]
c1cc(-c2nc(N3CCCNCC3)c3ccncc3n2)ccn1 [Example 33, 1-[2-(pyridin-4-yl)-pyrido[3,4-d]-pyrimidin-4-yl]-1,4-diazepane]
COC(=O)[C@@H]1C[C@H](NC(=O)[C@@H]2C[C@H](Nc3nc(-c4ccncc4)nc4cnccc34)CN2)CN1 [Example 40, methyl (2S,4S)-4-[(2S,4S)-4-{[2-(pyridin-4-yl)-pyrido[3,4-d]-pyrimidin-4-yl]-amino}pyrrolidine-2-amido]pyrrolidine-2-carboxylate]
